In patent US20240109903A1, “SUBSTITUTED HETEROCYCLES FOR TREATING CANCER” (Northwestern University, priority 2022, published 2024):
Where two headings read alike, the source gives them in different places.

Key:
[1] = test system: CCRF-CEM; assay: NCI 60 five-dose screen CCRF-CEM; assay type: cell-based; conditions: Homo sapiens, five-dose; for CC50: read-out: LC50 (the source's name)
[2] = test system: EKVX; assay: NCI 60 five-dose screen EKVX; assay type: cell-based; conditions: Homo sapiens, five-dose; for CC50: read-out: LC50 (the source's name) (converted)
[3] = test system: NCI-H226; assay: NCI 60 five-dose screen NCI-H226; assay type: cell-based; conditions: Homo sapiens, five-dose; for CC50: read-out: LC50 (the source's name) (converted)
[4] = test system: K-562; assay: NCI 60 five-dose screen K-562; assay type: cell-based; conditions: Homo sapiens, K562, five-dose; for CC50: read-out: LC50 (the source's name)
[5] = test system: NCI-H460; assay: NCI 60 five-dose screen NCI-H460; assay type: cell-based; conditions: Homo sapiens, five-dose; for CC50: read-out: LC50 (the source's name) (converted)
[6] = test system: BT-549; assay: NCI 60 five-dose screen BT-549; assay type: cell-based; conditions: Homo sapiens, five-dose; for CC50: read-out: LC50 (the source's name) (converted)
[7] = test system: HOP-92; assay: NCI 60 five-dose screen HOP-92; assay type: cell-based; conditions: Homo sapiens, five-dose; for CC50: read-out: LC50 (the source's name) (converted)
[8] = test system: full NCI 60 cell panel; assay: NCI 60 Cell One-dose screen; assay type: cell-based, human; conditions: single high dose 10^−5 M, NCI 60 panel
From the text: Compounds were submitted to the NCI 60 Cell screen and tested at a single high dose (10^−5 M) in the full NCI 60 cell panel (see the following reference for details of using NCI 60 human tumor cell lines for screening anticancer drugs: Shoemaker R H. The NCI60 human tumor cell line anticancer drug screen. Nature Rev Cancer 2006; 6: 813-23). The One-dose data is reported as a mean graph of the percent growth of treated cells. The number reported for the One-dose assay is growth relative to the no-drug control, and relative to the time zero number of cells. This allows detection of both growth inhibition (values between 0 and 100) and lethality (values less than 0). For example, a value of 100 means no growth inhibition. A value of 40 would mean 60% growth inhibition. A value of 0 means no net growth over the course of the experiment. A value of −40 would mean 40% lethality. A value of −100 means all cells are dead. FIGS. 1-8 show the mean graph of percent growth against the NCI-60 cell panel for NUCC-0226674, NUCC-0226679, NUCC-0226680, NUCC-0226683, NUCC-0226689, NUCC-0226694, NUCC-0226695, and NUCC-0226698.

[9] = test system: RXF 393; assay: NCI 60 five-dose screen RXF 393; assay type: cell-based; conditions: Homo sapiens, five-dose; for CC50: read-out: LC50 (the source's name) (converted)
[10] = test system: NCI-H522; assay: NCI 60 five-dose screen NCI-H522; assay type: cell-based; conditions: Homo sapiens, five-dose; for CC50: read-out: LC50 (the source's name) (converted)
[11] = test system: 786-0; assay: NCI 60 five-dose screen 786-0; assay type: cell-based; conditions: Homo sapiens, five-dose; for CC50: read-out: LC50 (the source's name) (converted)
[12] = test system: MV-4-11 acute myeloid leukemia cells; assay: CellTiter-Glo 2.0 cell viability, MV-4-11; assay type: cell-based; conditions: Homo sapiens
Procedure: 2019 October; 94(4): 1813-1823.
Cell viability was assessed using the CellTiter-Glo 2.0 assay from Promega, which yields a signal proportional to the amount of ATP present in a cell population. Compounds were first dispensed into empty 96-well flat-bottom tissue culture-treated plates (Corning) using an Echo550. MV4-1 cells were diluted to a density of 0.1 million cells per ml, pipetted onto the compounds at a density of 1,000 cells per well for U937 and 3,000 cells per well for MV4-11, mixed, and incubated for 3 days at 37° C. with 5% C02. After incubating, 5 μl of cells from each well were added to 5 μl of CellTiter-Glo 2.0 reagent in a384-well white ProxiPlate (PerkinElmer), incubated for 20 minutes at ambient temperature, and luminescence was analyzed on an EnSpire plate reader. Graphing and regression analysis was performed in Graphpad Prism.

[13] = test system: MCF7; assay: NCI 60 five-dose screen MCF7; assay type: cell-based; conditions: Homo sapiens, five-dose; for CC50: read-out: LC50 (the source's name) (converted)
[14] = test system: OVCAR-8; assay: NCI 60 five-dose screen OVCAR-8; assay type: cell-based; conditions: Homo sapiens, five-dose; for CC50: read-out: LC50 (the source's name) (converted)
[15] = test system: HCT-15; assay: NCI 60 five-dose screen HCT-15; assay type: cell-based; conditions: Homo sapiens, five-dose; for CC50: read-out: LC50 (the source's name) (converted)
[16] = test system: NCI/ADR-RES; assay: NCI 60 five-dose screen NCI/ADR-RES; assay type: cell-based; conditions: Homo sapiens, five-dose; for CC50: read-out: LC50 (the source's name) (converted)
[17] = test system: IGROV1; assay: NCI 60 five-dose screen IGROV1; assay type: cell-based; conditions: Homo sapiens, IGROV-1, five-dose; for CC50: read-out: LC50 (the source's name) (converted)
[18] = test system: SF-268; assay: NCI 60 five-dose screen SF-268; assay type: cell-based; conditions: Homo sapiens, five-dose; for CC50: read-out: LC50 (the source's name) (converted)
[19] = test system: CAKI-1; assay: NCI 60 five-dose screen CAKI-1; assay type: cell-based; conditions: Homo sapiens, five-dose; for CC50: read-out: LC50 (the source's name) (converted)
[20] = test system: HCT-116; assay: NCI 60 five-dose screen HCT-116; assay type: cell-based; conditions: Homo sapiens, five-dose; for CC50: read-out: LC50 (the source's name) (converted)
[21] = MV4-11, 72 h, MV-4-11 cells, 3 days, CellTiter-Glo 2.0, read-out: IC50 (uM) [Cell Type: MV-4-11]
[22] = MV4-11, bound stated in text, read-out: IC50 against MV-4-11 acute myeloid leukemia cells

Work on `FC(F)(F)CN1CCN(CCn2c(C(F)(F)F)cc3c(Cl)ncnc32)CC1` [NUCC-0226683] yielded a GI50 [1] of 4.37 µM, an IC50 [1] of 7.41 µM and an IC (TGI) [1] of 100 µM. For the same compound, the CC50 [1] was ≥ 100 µM, the GI50 [2] was 11.7 µM and the IC50 [2] was 28.8 µM. For the same compound, the IC (TGI) [2] was 40.7 µM, the CC50 [2] was ≥ 100 µM and the GI50 [3] was 17.4 µM. The IC50 [3] was 100 µM, the IC (TGI) [3] was 72.4 µM and the CC50 [3] was ≥ 100 µM. The GI50 [4] was 2.82 µM, the IC50 [4] was 3.47 µM and the IC (TGI) [4] was 100 µM. The CC50 [4] was ≥ 100 µM, the GI50 [5] was 2.69 µM and the IC50 [5] was 3.63 µM. For the same compound, the IC (TGI) [5] was 6.76 µM, the CC50 [5] was 30.9 µM and the GI50 [6] was 12.9 µM. The IC50 [6] was 26.9 µM, the IC (TGI) [6] was 26.9 µM and the CC50 [6] was 55 µM. It also gave a GI50 [7] of 12.9 µM, an IC50 [7] of 32.4 µM and an IC (TGI) [7] of 29.5 µM. For the same compound, the CC50 [7] was 66.1 µM, the “growth inhibition in the One-Dose Screen” value [8] was “significant growth inhibition” and the GI50 [9] was 11 µM. The IC50 [9] was 30.9 µM, the IC (TGI) [9] was 28.2 µM and the CC50 [9] was 72.4 µM. The GI50 [10] was 1.7 µM, the IC50 [10] was 3.24 µM and the IC (TGI) [10] was 3.55 µM. For the same compound, the CC50 [10] was 7.24 µM, the GI50 [11] was 22.4 µM and the IC50 [11] was 37.2 µM. For the same compound, the IC (TGI) [11] was 60.3 µM, the CC50 [11] was ≥ 100 µM and the IC50 [12, 21] was 1.83 µM. For the same compound, the IC50 [12, 22] was < 2 µM, the GI50 [13] was 10 µM and the IC50 [13] was 15.8 µM. The IC (TGI) [13] was 42.7 µM, the CC50 [13] was ≥ 100 µM and the GI50 [14] was 3.24 µM. It also gave an IC50 [14] of 4.47 µM, an IC (TGI) [14] of 11.7 µM and a CC50 [14] of 40.7 µM. It also gave a GI50 [15] of 2.57 µM, an IC50 [15] of 3.55 µM and an IC (TGI) [15] of 7.41 µM. For the same compound, the CC50 [15] was 50.1 µM, the GI50 [16] was 19.1 µM and the IC50 [16] was 35.5 µM. For the same compound, the IC (TGI) [16] was 46.8 µM, the CC50 [16] was ≥ 100 µM and the GI50 [17] was 1.78 µM. The IC50 [17] was 3.16 µM, the IC (TGI) [17] was 3.55 µM and the CC50 [17] was 7.08 µM. The GI50 [18] was 5.25 µM, the IC50 [18] was 11.5 µM and the IC (TGI) [18] was 21.4 µM. For the same compound, the CC50 [18] was 70.8 µM, the GI50 [19] was 13.5 µM and the IC50 [19] was 25.7 µM. For the same compound, the IC (TGI) [19] was 30.9 µM, the CC50 [19] was 69.2 µM and the GI50 [20] was 3.16 µM. It also gave an IC50 [20] of 3.72 µM, an IC (TGI) [20] of 13.2 µM and a CC50 [20] of 64.6 µM.

For `OC1CCC(Cn2c(C(F)(F)F)cc3c(Cl)ncnc32)CC1` (stereo not drawn) [NUCC-0226689], the GI50 [1] was 5.62 µM, the IC50 [1] was 9.33 µM and the IC (TGI) [1] was 100 µM. For the same compound, the CC50 [1] was ≥ 100 µM, the GI50 [2] was 12.9 µM and the IC50 [2] was 29.5 µM. The IC (TGI) [2] was 38.9 µM, the CC50 [2] was ≥ 100 µM and the GI50 [3] was 23.4 µM. For the same compound, the IC50 [3] was 100 µM, the IC (TGI) [3] was 79.4 µM and the CC50 [3] was ≥ 100 µM. It also gave a GI50 [4] of 2.88 µM, an IC50 [4] of 3.55 µM and an IC (TGI) [4] of 100 µM. For the same compound, the CC50 [4] was ≥ 100 µM, the GI50 [5] was 4.79 µM and the IC50 [5] was 5.5 µM. The IC (TGI) [5] was 16.6 µM, the CC50 [5] was 53.7 µM and the GI50 [6] was 13.2 µM. For the same compound, the IC50 [6] was 28.2 µM, the IC (TGI) [6] was 28.2 µM and the CC50 [6] was 58.9 µM. For the same compound, the GI50 [7] was 20.4 µM, the IC50 [7] was 74.1 µM and the IC (TGI) [7] was 64.6 µM. The CC50 [7] was ≥ 100 µM, the “growth inhibition in the One-Dose Screen” value [8] was “significant growth inhibition” and the GI50 [9] was 12.6 µM. The IC50 [9] was 37.2 µM, the IC (TGI) [9] was 34.7 µM and the CC50 [9] was 97.7 µM. It also gave a GI50 [10] of 1.55 µM, an IC50 [10] of 3.09 µM and an IC (TGI) [10] of 3.55 µM. It also gave a CC50 [10] of 8.13 µM, a GI50 [11] of 32.4 µM and an IC50 [11] of 49 µM. The IC (TGI) [11] was 100 µM, the CC50 [11] was ≥ 100 µM and the IC50 [12, 21] was 0.689 µM. For the same compound, the IC50 [12, 22] was < 2 µM, the GI50 [13] was 37.2 µM and the IC50 [13] was 52.5 µM. For the same compound, the IC (TGI) [13] was 100 µM, the CC50 [13] was ≥ 100 µM and the GI50 [14] was 2.29 µM. The IC50 [14] was 3.63 µM, the IC (TGI) [14] was 5.37 µM and the CC50 [14] was 30.9 µM. The GI50 [15] was 3.72 µM, the IC50 [15] was 4.79 µM and the IC (TGI) [15] was 20 µM. For the same compound, the CC50 [15] was ≥ 100 µM, the GI50 [16] was 26.3 µM and the IC50 [16] was 43.7 µM. For the same compound, the IC (TGI) [16] was 100 µM, the CC50 [16] was ≥ 100 µM and the GI50 [17] was 1.95 µM. The IC50 [17] was 3.47 µM, the IC (TGI) [17] was 4.07 µM and the CC50 [17] was 8.51 µM. For the same compound, the GI50 [18] was 2.51 µM, the IC50 [18] was 4.47 µM and the IC (TGI) [18] was 6.92 µM. It also gave a CC50 [18] of 37.2 µM, a GI50 [19] of 16.6 µM and an IC50 [19] of 33.1 µM. The IC (TGI) [19] was 52.5 µM, the CC50 [19] was ≥ 100 µM and the GI50 [20] was 3.55 µM. It also gave an IC50 [20] of 4.17 µM, an IC (TGI) [20] of 15.8 µM and a CC50 [20] of 72.4 µM.
